PMC7016953 (Cells, 2020)

Legend:
[1] = tested on: PC12 cells (native TRPC3 channel complexes); assay: [Ca2+]i analysis in fura-2-loaded PC12 cells; type: cell-based, rat
Procedure: Human embryonic kidney 293 (HEK293) cells were stably transfected with expression plasmids that encode hTRPC3-YFP, hTRPC6-YFP, hTRPC7-YFP, mTRPC4ß-YFP, rTRPV1-CFP, rTRPV2-YFP, rTRPV3-YFP, mTRPV4-YFP, or hTRPM2 as previously described. Cell lines were cultured in Earle’s minimum essential medium (MEM; Sigma, Munich, Germany), supplemented with 10% fetal calf serum (Gibco Thermo Fisher Scientific, Darmstadt, Germany), 2 mM L-glutamine, and required concentrations of geneticin in a range of 0.4–1 mg/mL. A HEK293mTRPC5-YFP cell line was maintained and induced as described before. The HEK293mTRPM3α2 cells (expressing the Ca^2+-permeable main variant of mouse TRPM3) were kindly provided by Johannes Oberwinkler (Marburg, Germany), the HEK293hTRPA1 cells that constitutively overexpress the human TRPA1 were from Dr. Natalie Tigue and Dr. Steve Moore (GlaxoSmithKline, Harlow, UK). With the exception of mTRPC5-YFP, all cell lines constitutively overexpress the respective TRP channel under the control of a cytomegalovirus (CMV) promoter. A HEK cell line stably expressing the human protein kinase C (PKC) ε C-terminally tagged with YFP [13] was generated and maintained in the same medium as HEKTRPC3-YFP cells. PC12 cells were cultured in RPMI-1640 (Sigma, Munich, Germany) with 10% fetal calf serum, 2 mM L-glutamine, 100 U/mL penicillin, and 0.1 mg/mL streptomycin. For electrophysiological and single cell [Ca^2+]i imaging experiments, PC12 cells were plated onto 25 mm poly-L-lysine-coated glass coverslips and measured 24–48 h after seeding. All cells were maintained at 37 °C in a 5% CO2-aerated, humidified atmosphere.
The microfluorometric single-cell [Ca^2+]i analysis was performed on an inverted epifluorescence microscope (Carl Zeiss, Jena, Germany) and calibrated as described. Cells were grown on 25 mm coverslips and loaded with 4 µM fura-2/AM (AAT Bioquest, Sunnyvale, CA, U.S.A.) in HBS containing 0.2% BSA for 30 min at 37 °C. After gently rinsing the coverslips with HBS, coverslips were mounted in a bath chamber and superfused with HBS containing 0.035% BSA.
Figure 7 Expression of TRPC3 and functional responses to TRPC activators in PC12 rat pheochromocytoma cells. (A) Immunofluorescence analysis of TRPC3 (green channel) and tyrosine hydroxylase (TH; red channel) expression in PC12 cells. Nuclei were counterstained with DAPI (blue channel). Bars: 20 µm scale. Time course of the [Ca^2+]i (B) and averaged basal and peak [Ca^2+]i values (C) were recorded by microfluorometric analysis in fura-2-loaded PC12 cells grown on glass coverslips. […] Data represent averages (B) or means and S.D. (C) of 6–12 imaging experiments for each compound. Significant increases compared to the respective basal values are indicated (#: p < 0.05; Student´s t-test for paired data).

hTRPC7-YFP = tested on: T1, hTRPC7-YFP; assay: Fluo-4 Ca2+ influx assay in HEK293 cells stably expressing TRPC7; type: cell-based, human; settings: fluo-4 concentration response analysis
T1 construct: expressed in transfected cells

hTRPM2 = tested on: T2, hTRPM2; assay: Selectivity profiling, fluo-4 [Ca2+]i response, TRPM2; type: cell-based, human; settings: 100 µM
T2 construct: expressed in transfected cells
Procedure: (§1) Human embryonic kidney 293 (HEK293) cells were stably transfected with expression plasmids that encode hTRPC3-YFP, hTRPC6-YFP, hTRPC7-YFP, mTRPC4ß-YFP, rTRPV1-CFP, rTRPV2-YFP, rTRPV3-YFP, mTRPV4-YFP, or hTRPM2 as previously described. Cell lines were cultured in Earle’s minimum essential medium (MEM; Sigma, Munich, Germany), supplemented with 10% fetal calf serum (Gibco Thermo Fisher Scientific, Darmstadt, Germany), 2 mM L-glutamine, and required concentrations of geneticin in a range of 0.4–1 mg/mL. A HEK293mTRPC5-YFP cell line was maintained and induced as described before. […] For electrophysiological and single cell [Ca^2+]i imaging experiments, PC12 cells were plated onto 25 mm poly-L-lysine-coated glass coverslips and measured 24–48 h after seeding. […]
(§2) The primary compound screen and the generation of concentration response curves in HEK293 cells or in PC12 cells were performed by using a custom-made fluorescence plate imager built into a robotic liquid handling station equipped with a 96-tip multichannel head (Freedom Evo 150, Tecan, Männedorf, Switzerland) as described previously. […] Plates were mounted on the imager, and fluorescence signals were recorded with a cooled Zyla 5.5 camera (Andor, Belfast, UK) through a 515 nm long pass filter. […] When inhibitory potencies were evaluated, a second pipetting step with the respective reference agonist was performed. […]

rTRPV3-YFP = tested on: T3, rTRPV3-YFP; assay: Selectivity profiling, fluo-4 [Ca2+]i response, TRPV3; type: cell-based, rat; settings: 100 µM
T3 construct: expressed in transfected cells
Procedure: as §1, §2

C[C@@H]1CC[C@H]2[C@@H](C)C(=O)O[C@@H]3O[C@@]4(C)CC[C@@H]1[C@]32OO4 [artemisinin]
[Ca2+]i in fura 2-loaded PC12 cells ([1]; artemisinin 50 or 100 µM, 6–12 experiments for each compound): significant increases in [Ca^2+]i | response to artemisinin after neuronal growth factor treatment of PC12 cells ([1]; neuronal growth factor treatment): lower response | effect on TRPC7 (hTRPC7-YFP): weakly activated | [Ca2+]i response, TRPM2 (hTRPM2): none of the cell lines responded | [Ca2+]i response, TRPV3 (rTRPV3-YFP): none of the cell lines responded
